Here are results for one compound from patent publication US20240052423A1, “METHODS OF IDENTIFYING A TUMOR THAT IS SENSITIVE TO TREATMENT WITH TALAZOPARIB AND METHODS OF TREATMENT THEREOF” (PFIZER INC., priority 2020, published 2024).

What all share (assay type): in vivo, human
Assay [1] deals with HER2-negative advanced breast cancer or other solid tumors with a mutation in homologous recombination. Nature of the assay: Phase II clinical trial of talazoparib, best response by RECIST v.1.1, combined cohorts. As for the experimental part:
(§1) A phase II clinical trial of the PARP inhibitor talazoparib in BRCA1 and BRCA2 wild-type patients with HER2-negative advanced breast cancer or other solid tumors with a mutation in homologous recombination was conducted as shown in FIG. 1. Eligible patients were adults (≥18 years old) with HER2-negative advanced or metastatic breast cancer that had progressed on at least 1 prior line of therapy for metastatic disease. Eligible patients also included adults (≥18 years old) with advanced or metastatic solid tumors beyond breast cancer that had progressed on at least one prior line of therapy. Patients were required to have no pathogenic mutations in either BRCA1 or BRCA2 genes on germline or somatic testing. They were required to have a pathogenic or likely pathogenic mutation in a HR-pathway associated gene detected on multiplex germline or somatic testing. These genes include: PALB2, CHEK2, ATM, NBN, BARD1, BRIP1, RAD50, RAD51C, RAD51D, MRE11, ATR, PTEN, Fanconi anemia complementation group of genes (FANCA, FANCC, FANCD2, FANCE, FANCF, FANCG, FANCL), plus other HR-related genes at the discretion of the primary investigators. Measurable disease by RECIST version 1.1 was required. There was no upper limit on the number of prior systemic therapies allowed prior to study entry. Patients were not allowed to have progressed during therapy with a platinum agent or within 8 weeks of discontinuing a platinum agent. Subjects were required to have an Eastern Cooperative Oncology Group (ECOG) performance status (PS) of 0-2 and adequate organ function based on screening laboratory values of liver, renal and hematologic parameters. The ability to take oral medications was required. Sexually active patients of childbearing potential were mandated to use contraception and females of childbearing age were tested for pregnancy at screening; females were not permitted to participate if pregnant or nursing and were tested for pregnancy at screening. Patients were excluded if they previously took any PARP inhibitor, had taken any anti-cancer therapy within 21-days of study entry, received radiation therapy within 14 days of study entry, had active brain metastasis requiring treatment or leptomeningeal disease. Patients with human immunodeficiency virus infection or active hepatitis C or hepatitis B viral infections were excluded. Also, patients requiring prolonged hospitalization, major surgery or receiving other investigational agent within 21 days prior to study entry were excluded. Additional key exclusion criteria were: other medical co-morbidity likely to interfere with study participation eg. infection grade ≥3 CTCAE version 4, or requiring parenteral antibiotics within 7 days, or known hypersensitivity to talazoparib. Talazoparib was administered at 1 mg orally daily continuously, taken whole, at approximately the same time each day. Treatment cycles lasted 28 days. Patients were evaluated on day 1 of each treatment cycle by physician assessment including medical history, physical examination, laboratory values (complete blood count (CBC) and comprehensive metabolic panel), vital signs, ECOG PS assessment and urine pregnancy test (for women of childbearing age only). Day 14 physician assessment was required for the first cycle and CBCs were required weekly for the first cycle, then prior to start of each subsequent cycle. Treatment continued until disease progressed or unacceptable toxicity. Safety was assessed at each physician visit and monitored continuously by laboratory values, patient reporting and patient diary. Adverse events (AEs) and severe AEs (SAEs) were graded according to CTCAE version 4.0. SAEs grade ≥3 were reported to the Data Safety Monitoring Committee. Tumor evaluation was performed at baseline and after every two cycles and responses were assessed according to RECIST version 1.1. After six cycles, tumor evaluations were allowed every 3 cycles per physician discretion. […]

Assay [2] has as its system other solid tumors with a mutation in homologous recombination. Description: Phase II clinical trial of talazoparib, best response by RECIST v.1.1, non-breast cancer cohort. The following applies: Non-Breast Cancer (N = 7), 1 mg orally daily. As for the experimental part:
as §1

In assay [3] the test system is HER2-negative advanced or metastatic breast cancer with a non-BRCA1/2 mutation in homologous recombination. Nature of the assay: Phase II clinical trial of talazoparib, best response by RECIST v.1.1, breast cancer cohort. To be noted: Breast Cancer (N = 13), 1 mg orally daily. As for the experimental part:
as §1

[4] abbreviates: Combined (N = 20), 1 mg orally daily, RECIST v.1.1.

Take `Cn1ncnc1[C@H]1c2n[nH]c(=O)c3cc(F)cc(c23)N[C@@H]1c1ccc(F)cc1` [talazoparib, (8S,9R)-5-fluoro-8-(4-fluorophenyl)-9-(1-methyl-1H-1,2,4-triazol-5-yl)-8,9-dihydro-2H-pyrido[4,3,2-de]phthalazin-3(7H)-one]: the “ORR (CR + PR)” value is 4 (20%); n (%) in assay [1] (Combined (N = 20), 1 mg orally daily, 95% CI: 6-44%); 0 (0%); n (%) in assay [2] (95% CI: 0-41%); 4 (31%); n (%) in assay [3] (95% CI: 9-61%). The “CBR (CR + PR + SD ≥ 6 mos)” value in assay [1] (Combined (N = 20), 1 mg orally daily, 95% CI: 23-68%) is on record as 9 (45%); n (%); in assay [2] it was 2 (29%); n (%); in assay [3] (95% CI: 21-81%), 7 (54%); n (%). Also, the “Complete Response (CR), response rate” value in assay [1] (setting [4]), in assay [2] (RECIST v.1.1) and in assay [3] (RECIST v.1.1) was 0 (0%) n (%) each time. Moreover, the entries for the “Partial Response (PR), response rate” value in assay [1] (setting [4]), in assay [2] (RECIST v.1.1) and in assay [3] (RECIST v.1.1) were 4 (20%) n (%), 0 (0%) n (%) and 4 (31%) n (%), respectively. In addition, the figures for the “Progressive Disease (PD), response rate” value in assay [1] (setting [4]), in assay [2] (RECIST v.1.1) and in assay [3] (RECIST v.1.1) were 6 (30%) n (%), 3 (43%) n (%) and 3 (23%) n (%), respectively. Also, the “Stable Disease (SD), response rate” value is given as 10 (50%) n (%) in assay [1] (setting [4]), 4 (57%) n (%) in assay [2] (RECIST v.1.1) and 6 (46%) n (%) in assay [3] (RECIST v.1.1). Also, the “partial responses observed in the first stage” value in assay [1] (first stage of 10 patients) is on record as “two”.
